Assays:
Type in all cases: cell-based
Pseudomonas aeruginosa = experiment: MIC against Gram-negative bacteria: Pseudomonas aeruginosa
In short: (§1)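 Purified recombinant human EGF domain proteins are tested by broth dilution in LB against a 5×10^5 CFU/mL inoculum, with two-fold serial dilutions run in triplicate. Plates are incubated at 37° C with shaking, and the MIC is read as the lowest protein concentration without growth.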

E. coli DH5α = experiment: Antibacterial activity: MIC and growth curve against E. coli DH5α in 96-well plate; details: minimal inhibitory concentration against E. coli DH5α; 96-well plate, 5×10^5 CFU/mL, 37° C., judged after 8 h
In short: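 Log-phase DH5α (OD600 about 0.5, 37° C, 185 rpm in LB) was pelleted, resuspended in fresh LB and seeded at 5×10^5 CFU/mL with recombinant protein at 50, 25 and 12.5 μg/mL (two-fold series), in triplicate. Plates were shaken at 175 rpm, 37° C, and OD600 was read every 30 min. MIC was the lowest concentration with no growth.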

E. coli BL21 = experiment: MIC against Gram-negative bacteria: E. coli BL21
In short: as §1

Proteus vulgaris = experiment: MIC against Gram-negative bacteria: Proteus vulgaris
In short: as §1

Proteus mirabilis = experiment: MIC against Gram-negative bacteria: Proteus mirabilis
In short: as §1

Moraxella catarrhalis = experiment: MIC against Gram-negative bacteria: Moraxella catarrhalis
In short: as §1

Citrobacter diversus = experiment: MIC against Gram-negative bacteria: Citrobacter diversus
In short: as §1

Enterobacter cloacae = experiment: MIC against Gram-negative bacteria: Enterobacter cloacae
In short: as §1

Klebsiella pneumonia = experiment: MIC against Gram-negative bacteria: Klebsiella pneumonia
In short: as §1

Aeromonas hydrophila = experiment: MIC against Gram-negative bacteria: Aeromonas hydrophila
In short: as §1

Serratia marcescens = experiment: MIC against Gram-negative bacteria: Serratia marcescens
In short: as §1

[1] = 96-well plate, 5×10^5 CFU/mL, 37° C., 10 h
[2] = Pseudomonas aeruginosa, 96-well plate, 5×10^5 CFU/mL, 37° C., 10 h
[3] = E. coli BL21, 96-well plate, 5×10^5 CFU/mL, 37° C., 10 h
[4] = Proteus vulgaris, 96-well plate, 5×10^5 CFU/mL, 37° C., 10 h
[5] = Proteus mirabilis, 96-well plate, 5×10^5 CFU/mL, 37° C., 10 h
[6] = Moraxella catarrhalis, 96-well plate, 5×10^5 CFU/mL, 37° C., 10 h
[7] = Citrobacter diversus, 96-well plate, 5×10^5 CFU/mL, 37° C., 10 h
[8] = Enterobacter cloacae, 96-well plate, 5×10^5 CFU/mL, 37° C., 10 h
[9] = Klebsiella pneumonia, 96-well plate, 5×10^5 CFU/mL, 37° C., 10 h
[10] = Aeromonas hydrophila, 96-well plate, 5×10^5 CFU/mL, 37° C., 10 h
[11] = Serratia marcescens, 96-well plate, 5×10^5 CFU/mL, 37° C., 10 h

## PRT909 (LVDECSPSPCQNGATCTDYLGGYSCKCVAGYHGVNCS; listed as Homo sapiens)
Pseudomonas aeruginosa; P. aeruginosa, 10 h cultivation at 37° C.
  MIC: 12.5 µg/mL
E. coli DH5α
  MIC: 50 µg/mL
E. coli BL21; E. coli BL21, 10 h cultivation at 37° C.
  MIC: 25 µg/mL
Proteus vulgaris; P. vulgaris, 10 h cultivation at 37° C.
  MIC: 50 µg/mL
Proteus mirabilis; P. mirabilis, 10 h cultivation at 37° C.
  MIC: 12.5 µg/mL
Moraxella catarrhalis; M. catarrhalis, 10 h cultivation at 37° C.
  MIC: 25 µg/mL
Citrobacter diversus; C. diversus, 10 h cultivation at 37° C.
  MIC: 50 µg/mL
Enterobacter cloacae; E. cloacae, 10 h cultivation at 37° C.
  MIC: 25 µg/mL
Klebsiella pneumonia; K. pneumonia, 10 h cultivation at 37° C.
  MIC: 50 µg/mL
Aeromonas hydrophila; A. hydrophila, 10 h cultivation at 37° C.
  MIC: 12.5 µg/mL
Serratia marcescens; S. marcescens, 10 h cultivation at 37° C.
  MIC: 12.5 µg/mL

## PRT660 (DHDECQDLACENGECVNTEGSFHCFCSPPLTLDLSQQRCM; listed as Homo sapiens)
Pseudomonas aeruginosa; [1]
  MIC P. aeruginosa: 12.5 µg/mL
E. coli DH5α
  MIC: 12.5 µg/mL
E. coli BL21; [1]
  MIC E. coli BL21: 50 µg/mL
Proteus vulgaris; [1]
  MIC P. vulgaris: 50 µg/mL
Proteus mirabilis; [1]
  MIC P. mirabilis: 25 µg/mL
Moraxella catarrhalis; [1]
  MIC M. catarrhalis: 12.5 µg/mL
Citrobacter diversus; [1]
  MIC C. diversus: 50 µg/mL
Enterobacter cloacae; [1]
  MIC E. cloacae: 50 µg/mL
Klebsiella pneumonia; [1]
  MIC K. pneumonia: 12.5 µg/mL
Aeromonas hydrophila; [1]
  MIC A. hydrophila: 12.5 µg/mL
Serratia marcescens; [1]
  MIC S. marcescens: 12.5 µg/mL

## PRT68 (RSGRCANGVCKNGGTCVNLLIGGFHCVCPPGEYERPYCE; listed as Homo sapiens)
Pseudomonas aeruginosa; [2]
  MIC (μg/mL) P. aeruginosa: 12.5 µg/mL
E. coli DH5α
  MIC: 12.5 µg/mL
E. coli BL21; [3]
  MIC (μg/mL) E. coli BL21: 25 µg/mL
Proteus vulgaris; [4]
  MIC (μg/mL) P. vulgaris: 12.5 µg/mL
Proteus mirabilis; [5]
  MIC (μg/mL) P. mirabilis: 12.5 µg/mL
Moraxella catarrhalis; [6]
  MIC (μg/mL) M. catarrhalis: 12.5 µg/mL
Citrobacter diversus; [7]
  MIC (μg/mL) C. diversus: 12.5 µg/mL
Enterobacter cloacae; [8]
  MIC (μg/mL) E. cloacae: 12.5 µg/mL
Klebsiella pneumonia; [9]
  MIC (μg/mL) K. pneumonia: 25 µg/mL
Aeromonas hydrophila; [10]
  MIC (μg/mL) A. hydrophila: 12.5 µg/mL
Serratia marcescens; [11]
  MIC (μg/mL) S. marcescens: 100 µg/mL

## PRT542 (CRCDIGGALGQSCEPRTGVCRC; listed as Homo sapiens)
Pseudomonas aeruginosa; [1]
  MIC against P. aeruginosa: 25 µg/mL
E. coli DH5α
  MIC: 25 µg/mL
E. coli BL21; [1]
  MIC against E. coli BL21: 12.5 µg/mL
Proteus vulgaris; [1]
  MIC against P. vulgaris: 12.5 µg/mL
Proteus mirabilis; [1]
  MIC against P. mirabilis: 50 µg/mL
Moraxella catarrhalis; [1]
  MIC against M. catarrhalis: 12.5 µg/mL
Citrobacter diversus; [1]
  MIC against C. diversus: 50 µg/mL
Enterobacter cloacae; [1]
  MIC against E. cloacae: 25 µg/mL
Klebsiella pneumonia; [1]
  MIC against K. pneumonia: 50 µg/mL
Aeromonas hydrophila; [1]
  MIC against A. hydrophila: 12.5 µg/mL
Serratia marcescens; [1]
  MIC against S. marcescens: 50 µg/mL

## PRT1497 (KPVCEPGCGAHGTCHEPNKCQCQEGWHGRHCN; listed as Homo sapiens)
Pseudomonas aeruginosa; [2]
  MIC (μg/mL) P. aeruginosa: 12.5 µg/mL
E. coli DH5α
  MIC: 50 µg/mL
E. coli BL21; [3]
  MIC (μg/mL) E. coli BL21: 25 µg/mL
Proteus vulgaris; [4]
  MIC (μg/mL) P. vulgaris: 50 µg/mL
Proteus mirabilis; [5]
  MIC (μg/mL) P. mirabilis: 12.5 µg/mL
Moraxella catarrhalis; [6]
  MIC (μg/mL) M. catarrhalis: 50 µg/mL
Citrobacter diversus; [7]
  MIC (μg/mL) C. diversus: 25 µg/mL
Enterobacter cloacae; [8]
  MIC (μg/mL) E. cloacae: 25 µg/mL
Klebsiella pneumonia; [9]
  MIC (μg/mL) K. pneumonia: 50 µg/mL
Aeromonas hydrophila; [10]
  MIC (μg/mL) A. hydrophila: 12.5 µg/mL
Serratia marcescens; [11]
  MIC (μg/mL) S. marcescens: 12.5 µg/mL

## PRT42 (CQCNGHSKCINQSICEKCENLTTGKHCETCISGFYGDPTNGGKCQP; listed as Homo sapiens)
Pseudomonas aeruginosa; [2]
  MIC (μg/mL) P. aeruginosa: 25 µg/mL
E. coli DH5α
  MIC: 25 µg/mL
E. coli BL21; [3]
  MIC (μg/mL) E. coli BL21: 12.5 µg/mL
Proteus vulgaris; [4]
  MIC (μg/mL) P. vulgaris: 100 µg/mL
Proteus mirabilis; [5]
  MIC (μg/mL) P. mirabilis: 25 µg/mL
Moraxella catarrhalis; [6]
  MIC (μg/mL) M. catarrhalis: 12.5 µg/mL
Citrobacter diversus; [7]
  MIC (μg/mL) C. diversus: 25 µg/mL
Enterobacter cloacae; [8]
  MIC (μg/mL) E. cloacae: 25 µg/mL
Klebsiella pneumonia; [9]
  MIC (μg/mL) K. pneumonia: 12.5 µg/mL
Aeromonas hydrophila; [10]
  MIC (μg/mL) A. hydrophila: 12.5 µg/mL
Serratia marcescens; [11]
  MIC (μg/mL) S. marcescens: 50 µg/mL

## PRT194 (CRSKCHGHGVCDSNRHCYCEEGWAPPDCT; listed as Homo sapiens)
Pseudomonas aeruginosa; P. aeruginosa, 10 h cultivation at 37° C., 5×10^5 CFU/mL
  MIC (μg/mL) P. aeruginosa: 12.5 µg/mL
E. coli DH5α
  MIC: 12.5 µg/mL
E. coli BL21; E. coli BL21, 10 h cultivation at 37° C., 5×10^5 CFU/mL
  MIC (μg/mL) E. coli BL21: 25 µg/mL
Proteus vulgaris; P. vulgaris, 10 h cultivation at 37° C., 5×10^5 CFU/mL
  MIC (μg/mL) P. vulgaris: 25 µg/mL
Proteus mirabilis; P. mirabilis, 10 h cultivation at 37° C., 5×10^5 CFU/mL
  MIC (μg/mL) P. mirabilis: 100 µg/mL
Moraxella catarrhalis; M. catarrhalis, 10 h cultivation at 37° C., 5×10^5 CFU/mL
  MIC (μg/mL) M. catarrhalis: 100 µg/mL
Citrobacter diversus; C. diversus, 10 h cultivation at 37° C., 5×10^5 CFU/mL
  MIC (μg/mL) C. diversus: 12.5 µg/mL
Enterobacter cloacae; E. cloacae, 10 h cultivation at 37° C., 5×10^5 CFU/mL
  MIC (μg/mL) E. cloacae: 12.5 µg/mL
Klebsiella pneumonia; K. pneumonia, 10 h cultivation at 37° C., 5×10^5 CFU/mL
  MIC (μg/mL) K. pneumonia: 25 µg/mL
Aeromonas hydrophila; A. hydrophila, 10 h cultivation at 37° C., 5×10^5 CFU/mL
  MIC (μg/mL) A. hydrophila: 12.5 µg/mL
Serratia marcescens; S. marcescens, 10 h cultivation at 37° C., 5×10^5 CFU/mL
  MIC (μg/mL) S. marcescens: 12.5 µg/mL
